Molecular target: IRAK4 (Homo sapiens (Human), UniProt Q9NWZ3)
Assay: Determination of IRAK4 kinase activity (IMAP fluorescence polarization, phosphorylation of fluorescent peptide substrate)
Assay type: biochemical
Details: 0.5 nM GST tagged IRAK4, 100 nM peptide substrate RP7030, 100 μM ATP, 30 minutes at 25° C.
Method: The kinase activity of IRAK4 is determined by its ability to catalyze the phosphorylation of a fluorescent polypeptide substrate. The extent of phosphorylation is measured using IMAP technology (Molecular Devices) where the phosphorylated fluorescent substrate binds to the large M(III)-based nanoparticles which reduces the rotational speed of the substrate and thus increases its fluorescent polarization (FP).
Procedure: A 20 μl reaction mixture contains 10 mM TriHCl, pH 7.2, 0.5 nM GST tagged IRAK4 (SignalChem), 100 nM fluorescent peptide substrate (RP7030, Molecular Devices), 100 μM ATP, 1 mM DTT, 1 mM MgCl2, and 0.01% Tween 20. The reaction is initiated by the addition of ATP. After incubation for 30 minutes at 25° C., 60 μl of Progressive IMAP Reagent (Molecular Devices) is added to stop the reaction. Change in RP7030's FP is determined by a FP reader (Analyst HT, LJL BioSystems). Analytical LCMS Conditions: • Condition A: Phenomenex Luna C18 (4.6×250 mm), 95:5 to 5:95 water:MeCN (0.05% TFA), over 10 min, hold 6 min. • Condition B: Agilent SBC (3.0×50 mm), solvent A: H20-0.1% TFA; • solvent B: ACN-0.1% TFA; GRADIENT TABLE: 0 min:10% B, 0.3 min: 10% B, 1.5 min: 95% B, 2.70 min: 95% B, 2.76 min: 10% B, stop time 3.60 min.

Sequence of IRAK4 (Q9NWZ3 whole entry): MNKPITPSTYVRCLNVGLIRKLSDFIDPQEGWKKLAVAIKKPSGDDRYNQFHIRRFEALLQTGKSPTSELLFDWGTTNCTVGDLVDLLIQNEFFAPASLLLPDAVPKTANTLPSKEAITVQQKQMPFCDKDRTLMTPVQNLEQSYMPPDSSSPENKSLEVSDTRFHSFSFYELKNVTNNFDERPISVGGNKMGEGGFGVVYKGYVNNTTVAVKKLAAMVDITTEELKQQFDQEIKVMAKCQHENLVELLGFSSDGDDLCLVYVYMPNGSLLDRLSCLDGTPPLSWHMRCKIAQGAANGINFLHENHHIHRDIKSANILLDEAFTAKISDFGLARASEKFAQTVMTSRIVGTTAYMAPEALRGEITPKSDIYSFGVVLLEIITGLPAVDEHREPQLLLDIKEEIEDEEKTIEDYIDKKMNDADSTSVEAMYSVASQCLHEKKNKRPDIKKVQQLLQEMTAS

Which IC50 does the source give for `CN1CCCC(Nc2ncc(-c3nc4ccccc4s3)c(N[C@@H]3C[C@H](CO)[C@@H](O)[C@H]3O)n2)C1` (mixture of isomers) [Example 32, (1R,2S,3R,5R)-3-((5-(benzo[d]thiazol-2-yl)-2-(((RS)-1-methylpiperidin-3-yl)amino)pyrimidin-4-yl)amino)-5-(hydroxymethyl)cyclopentane-1,2-diol] here?
Its IC50 is 0.934 µM.

`OC[C@H]1C[C@@H](Nc2nc(NC3CCCNC3)ncc2-c2nc3ccccc3s2)[C@H](O)[C@@H]1O` (mixture of isomers) [Example 47, (1R,2S,3R,5R)-3-((5-(benzo[d]thiazol-2-yl)-2-((RS)-piperidin-3-ylamino)pyrimidin-4-yl)amino)-5-(hydroxymethyl)cyclopentane-1,2-diol] was tested. Which IC50 did it give?
The IC50 was 3.27 µM.

`OC[C@H]1C[C@@H](Nc2nc(NC3CCOC3)ncc2-c2nc3ccccc3s2)[C@H](O)[C@@H]1O` (mixture of isomers) [Example 48, (1R,2S,3R,5R)-3-((5-(benzo[d]thiazol-2-yl)-2-(((RS)-tetrahydrofuran-3-yl)amino)pyrimidin-4-yl)amino)-5-(hydroxymethyl)cyclopentane-1,2-diol] was tested. Which IC50 did it give?
Its IC50 is 1.58 µM.

How did the IC50 turn out when `OC[C@H]1C[C@@H](Nc2nc(NC3CCCOC3)ncc2-c2nc3ccccc3s2)[C@H](O)[C@@H]1O` (mixture of isomers) [Example 49, (1R,2S,3R,5R)-3-((5-(benzo[d]thiazol-2-yl)-2-(((RS)-tetrahydro-2H-pyran-3-yl)amino)pyrimidin-4-yl)amino)-5-(hydroxymethyl)cyclopentane-1,2-diol] was run?
Its IC50 is 1.47 µM.

How did the IC50 turn out when `OC[C@H]1C[C@@H](Nc2nc(NC3CCNC3)ncc2-c2nc3ccccc3s2)[C@H](O)[C@@H]1O` (mixture of isomers) [Example 51, (1R,2S,3R,5R)-3-((5-(benzo[d]thiazol-2-yl)-2-((RS)-pyrrolidin-3-ylamino)pyrimidin-4-yl)amino)-5-(hydroxymethyl)cyclopentane-1,2-diol] was run?
Its IC50 is 1.38 µM.

With `Cc1cc(Nc2ncc(-c3ccc4ccccc4n3)c(N[C@@H]3CC(C(C)(C)O)[C@@H](O)[C@H]3O)n2)cc(C)n1` (stereo in doubt) [Example 111, 6-(((1R,2S,3R,4R)-2,3-dihydroxy-4-(2-hydroxypropan-2-yl)cyclopentyl)amino)-2-((2,6-dimethylpyridin-4-yl)amino)-5-(quinolin-2-yl)pyrimidine] as the molecule, how does the IC50 read?
The IC50 was 0.0002 µM.

`COc1cc(Nc2ncc(-c3ccc4ccccc4n3)c(N[C@@H]3CC(C(C)(C)O)[C@@H](O)[C@H]3O)n2)ccn1` (stereo in doubt) [Example 112, 6-(((1R,2S,3R,4R)-2,3-dihydroxy-4-(2-hydroxypropan-2-yl)cyclopentyl)amino)-2-((2-methoxypyridin-4-yl)amino)-5-(quinolin-2-yl)pyrimidine] was tested. Which IC50 did it give?
The IC50 was 0.004 µM.

`CC(C)(O)C1C[C@@H](Nc2nc(Nc3cccc(C#N)c3)ncc2-c2nc3ccccc3s2)[C@H](O)[C@@H]1O` (stereo in doubt) [Example 115, 5-(benzo[d]thiazol-2-yl)-2-((3-cyanophenyl)amino)-6-(((1R,2S,3R,4R)-2,3-dihydroxy-4-(2-hydroxypropan-2-yl)cyclopentyl)amino)pyrimidine] was tested. Which IC50 did it give?
The IC50 was 0.036 µM.

Which IC50 does the source give for `CC(C)Oc1cc(Nc2ncc(-c3nc4ccccc4s3)c(N[C@@H]3CC(C(C)(C)O)[C@@H](O)[C@H]3O)n2)ccn1` (stereo in doubt) [Example 116, 5-(benzo[d]thiazol-2-yl)-6-(((1R,2S,3R,4R)-2,3-dihydroxy-4-(2-hydroxypropan-2-yl)cyclopentyl)amino)-2-((2-isopropoxypyridin-4-yl)amino)pyrimidine] here?
The IC50 was 0.019 µM.

`COc1cccc(Nc2ncc(-c3nc4ccccc4s3)c(N[C@@H]3CC(C(C)(C)O)[C@@H](O)[C@H]3O)n2)c1` (stereo in doubt) [Example 117, 5-(benzo[d]thiazol-2-yl)-6-(((1R,2S,3R,4R)-2,3-dihydroxy-4-(2-hydroxypropan-2-yl)cyclopentyl)amino)-2-((3-methoxyphenyl)amino)pyrimidine] was tested. Which IC50 did it give?
The IC50 was 0.02 µM.

For `Cc1cccc(Nc2ncc(-c3nc4ccccc4s3)c(N[C@@H]3CC(C(C)(C)O)[C@@H](O)[C@H]3O)n2)c1` (stereo in doubt) [Example 118, 5-(benzo[d]thiazol-2-yl)-6-(((1R,2S,3R,4R)-2,3-dihydroxy-4-(2-hydroxypropan-2-yl)cyclopentyl)amino)-2-(m-tolylamino)pyrimidine], which IC50 is on record?
The IC50 was 0.016 µM.

How did the IC50 turn out when `CC(C)(O)C1C[C@@H](Nc2nc(Nc3ccccc3)ncc2-c2nc3ccccc3s2)[C@H](O)[C@@H]1O` (stereo in doubt) [Example 119, 5-(benzo[d]thiazol-2-yl)-6-(((1R,2S,3R,4R)-2,3-dihydroxy-4-(2-hydroxypropan-2-yl)cyclopentyl)amino)-2-(phenylamino)pyrimidine] was run?
Its IC50 is 0.016 µM.

For `CC(C)(O)C1C[C@@H](Nc2nc(Nc3ccnc(C(F)(F)F)c3)ncc2-c2nc3ccccc3s2)[C@H](O)[C@@H]1O` (stereo in doubt) [Example 120, 5-(benzo[d]thiazol-2-yl)-6-(((1R,2S,3R,4R)-2,3-dihydroxy-4-(2-hydroxypropan-2-yl)cyclopentyl)amino)-2-((2-(trifluoromethyl)pyridin-4-yl)amino)pyrimidine], which IC50 is on record?
The IC50 was 0.01 µM.

`CC(C)(O)C1C[C@@H](Nc2nc(Nc3cccc(C(F)(F)F)c3)ncc2-c2nc3ccccc3s2)[C@H](O)[C@@H]1O` (stereo in doubt) [Example 121, 5-(benzo[d]thiazol-2-yl)-6-(((1R,2S,3R,4R)-2,3-dihydroxy-4-(2-hydroxypropan-2-yl)cyclopentyl)amino)-2-((3-(trifluoromethyl)phenyl)amino)pyrimidine] was tested. Which IC50 did it give?
The IC50 was 0.386 µM.

For `CC(C)(O)C1C[C@@H](Nc2nc(Nc3cc(F)cc(F)c3)ncc2-c2nc3ccccc3s2)[C@H](O)[C@@H]1O` (stereo in doubt) [Example 122, 5-(benzo[d]thiazol-2-yl)-2-((3,5-difluorophenyl)amino)-6-(((1R,2S,3R,4R)-2,3-dihydroxy-4-(2-hydroxypropan-2-yl)cyclopentyl)amino)pyrimidine], which IC50 is on record?
The IC50 was 0.163 µM.

How did the IC50 turn out when `COc1cc(Nc2ncc(-c3ccc4cccc(C)c4n3)c(N[C@@H]3CC(C(C)(C)O)[C@@H](O)[C@H]3O)n2)ccn1` (stereo in doubt) [Example 123, 6-(((1R,2S,3R,4R)-2,3-dihydroxy-4-(2-hydroxypropan-2-yl)cyclopentyl)amino)-2-((2-methoxypyridin-4-yl)amino)-5-(8-methylquinolin-2-yl)pyrimidine] was run?
Its IC50 is 0.712 µM.

How did the IC50 turn out when `COc1ccc(Nc2ncc(-c3nc4ccccc4s3)c(N[C@@H]3CC(C(C)(C)O)[C@@H](O)[C@H]3O)n2)c(OC)c1` (stereo in doubt) [Example 125, 5-(benzo[d]thiazol-2-yl)-6-(((1R,2S,3R,4R)-2,3-dihydroxy-4-(2-hydroxypropan-2-yl)cyclopentyl)amino)-2-((2,4-dimethoxyphenyl)amino)pyrimidine] was run?
Its IC50 is 0.06 µM.

For `COc1cc(Nc2ncc(-c3nc4ccccc4s3)c(N[C@@H]3CC(C(C)(C)O)[C@@H](O)[C@H]3O)n2)ccn1` (stereo in doubt) [Example 126, 5-(benzo[d]thiazol-2-yl)-6-(((1R,2S,3R,4R)-2,3-dihydroxy-4-(2-hydroxypropane-2-yl)cyclopentyl)amino)-2-((2-methoxypyridin-4-yl)amino)pyrimidine], which IC50 is on record?
Its IC50 is 0.009 µM.

With `COc1cc(Nc2ncc(-c3nc4cnccc4s3)c(N[C@@H]3CC(C(C)(C)O)[C@@H](O)[C@H]3O)n2)ccn1` (stereo in doubt) [Example 136, 6-(((1R,2S,3R,4R)-2,3-dihydroxy-4-(2-hydroxypropan-2-yl)cyclopentyl)amino)-2-((2-methoxypyridin-4-yl)amino)-5-(thiazolo[4,5-c]pyridin-2-yl)pyrimidine] as the molecule, how does the IC50 read?
Its IC50 is 0.0007 µM.

How did the IC50 turn out when `Cc1cc(Nc2ncc(-c3nc4cnccc4s3)c(N[C@@H]3CC(C(C)(C)O)[C@@H](O)[C@H]3O)n2)cc(C)n1` (stereo in doubt) [Example 137, 6-(((1R,2S,3R,4R)-2,3-dihydroxy-4-(2-hydroxypropan-2-yl)cyclopentyl)amino)-2-((2,6-dimethylpyridin-4-yl)amino)-5-(thiazolo[4,5-c]pyridin-2-yl)pyrimidine] was run?
The IC50 was 0.0002 µM.

For `Cc1cc(Nc2ncc(-c3nc4c(C)nccc4s3)c(N[C@@H]3CC(C(C)(C)O)[C@@H](O)[C@H]3O)n2)cc(C)n1` (stereo in doubt) [Example 138, 6-(((1R,2S,3R,4R)-2,3-dihydroxy-4-(2-hydroxypropan-2-yl)cyclopentyl)amino)-2-((2,6-dimethylpyridin-4-yl)amino)-5-(4-methylthiazolo[4,5-c]pyridin-2-yl)pyrimidine], which IC50 is on record?
The IC50 was 0.0005 µM.

With `Cc1cc(Nc2cc(N[C@H]3C[C@@H](C(C)(C)O)[C@H](O)[C@@H]3O)c(-c3nc(C)cs3)cn2)cc(C)n1` (stereo in doubt) [Example 162, (1S,2R,3S,5R)-3-((2-((2,6-dimethylpyridin-4-yl)amino)-5-(4-methylthiazol-2-yl)pyridin-4-yl)amino)-5-(2-hydroxypropan-2-yl)cyclopentane-1,2-diol] as the molecule, how does the IC50 read?
The IC50 was 0.037 µM.

— US9598440B2, “Inhibitors of IRAK4 activity” (MERCK SHARP & DOHME CORP., priority 2012, dated 2017)
